Measurements as given in US9326931B2, “Use of porphyrin-type catalytic oxidation compounds as an anti-dandruff agent” (L'OREAL, priority 2012, dated 2016).

Test: Test 1: Oxidation of 2,2,6,6-tetramethylpiperidine (TEMP), EPR detection of TEMPO
Details: porphyrin compound at 0.5 μM, 50 mM TEMP, phosphate buffer pH 7.4, oxygen-saturated, daylight, 1 hour
Method: The oxidizing agent used in this test is dissolved oxygen. A solution comprising a phosphate buffer (pH 7.4), 50 mM of the compound 2,2,6,6-tetramethylpiperidine (TEMP) and a porphyrin compound at 0.5 μM is prepared. The solution is saturated with oxygen. The solution is placed in daylight. After 1 hour, electron paramagnetic resonance (EPR) spectrometry of the oxidized form of the compound 2,2,6,6-tetramethylpiperidine (TEMP), which corresponds to the compound […], known as TEMPO, is performed. In accordance with the scientific publication Lion et al., 1976; Moan and Wold, 1979, the presence of the compound in TEMPO form is indicative of the oxidation produced by oxygen on the compound 2,2,6,6-tetramethylpiperidine and thus of the catalytic effect of the porphyrin compound. […] With a porphyrin compound according to the invention, the appearance of the TEMPO compound is observed after 1 hour of placing in contact.

copper chlorophyllin
catalytic oxidation activity: formation of the TEMPO compound from TEMP (test 1): does not lead to the formation of the TEMPO compound
